Measurements published in patent US9732087B2, “Diamino-pyridine, pyrimidine, and pyridazine modulators of the histamine H4 receptor” (JANSSEN PHARMACEUTICA NV, priority 2008, dated 2017).
Where a name gives a salt, the structure may show the parent alone.

Molecular target: human H4 receptor (Homo sapiens (Human), UniProt Q9H3N8)
Assay: Binding assay on recombinant human histamine H4 receptor ([3H]histamine competition, SK-N-MC cell membranes)
Settings: membranes harvested with 96 well Brandel system; [3H]histamine 10 nM; average of results; read-out: Brandel Ki
Method: Binding Assay on Recombinant Human Histamine H4Receptor
Cell pellets from SK-N-MC cells stably or transiently transfected with human H4 receptor (NCBI accession No. AF312230) were used for the binding assays. Cell pellets were homogenized in 50 mM Tris/5 mM EDTA buffer and supernatants from an 800 g spin were collected and recentrifuged at 30,000 g for 30 min. Pellets were rehomogenized in 50 mM Tris/5 mM EDTA buffer. […] Membranes were harvested by rapid filtration using the 96 well Brandel system (Table 1, Brandel) or a cell harvester (Table 1, Cell Harvester) using a Whatman GF/C filter or filter plates treated with 0.5% polyethylenimine (PEI), and washed 4 times with ice-cold 50 mM Tris/5 mM EDTA buffer. Filters were then dried, mixed with scintillant and radioactive counts were determined. […] Where activity is shown as greater than (>) a particular value, the value is the highest concentration tested.

SMILES	Ki [nM]
CC(C)CNc1cc(N2CCNCC2)ccn1 [Example 19, N-(2-Methylpropyl)-4-piperazin-1-ylpyridin-2-amine dihydrochloride]	45.3
CCCCNc1cc(N2CC[C@@H](NC)C2)cnn1 [Example 100, N-Butyl-5-[(3R)-3-(methylamino)pyrrolidin-1-yl]pyridazin-3-amine]	31
CC(C)CNc1nccc(N2CCNCC2)n1 [Example 65, Isobutyl-(4-piperazin-1-yl-pyrimidin-2-yl)-amine]	46.3
c1cc(N2CCNCC2)nc(NCC2CC2)n1 [Example 66, Cyclopropylmethyl-(4-piperazin-1-yl-pyrimidin-2-yl)-amine]	12.2

Same assay, conditions: membranes harvested with cell harvester; [3H]histamine 10 nM; average of results; read-out: Cell Harvester Ki

SMILES	Ki [nM]
CN[C@@H]1CCN(c2cnnc(NCC3CCC4CC3C4(C)C)c2)C1 (stereo partly drawn) [Example 388, N-[(6,6-Dimethylbicyclo[3.1.1]hept-2-yl)methyl]-5-[(3R)-3-(methylamino)pyrrolidin-1-yl]pyridazin-3-amine]	293
CN[C@@H]1CCN(c2cnnc(NC3CCCC3)c2)C1 [Example 412, N-cyclopentyl-5-[(3R)-3-(methylamino)pyrrolidin-1-yl]pyridazin-3-amine]	5.6
CCCCNc1cc(N2CCNCC2)cnn1 [Example 356, N-Butyl-5-piperazin-1-ylpyridazin-3-amine]	1600
CCCCNc1cc(N2CC[C@@H](NC)C2)cnn1 [Example 100, N-Butyl-5-[(3R)-3-(methylamino)pyrrolidin-1-yl]pyridazin-3-amine]	31
OCCCNc1cc(N2CCNCC2)cnn1 [Example 314, 3-[(5-Piperazin-1-ylpyridazin-3-yl)amino]propan-1-ol]	> 10000
CN(CCN)c1cnnc(NCC(C)(C)C)c1 [Example 300, N^5-(2-Aminoethyl)-N^3-(2,2-dimethylpropyl)-N^5-methylpyridazine-3,5-diamine]	1860
CNC1CN(c2ccnc(NC3CCCC3)c2)C1 [Example 259, N-Cyclopentyl-4-[3-(methylamino)azetidin-1-yl]pyridin-2-amine]	5.15
CN[C@H]1CCN(c2cnnc(NCC3CCCCC3)c2)C1 [Example 396, N-(Cyclohexylmethyl)-5-[(3S)-3-(methylamino)pyrrolidin-1-yl]pyridazin-3-amine]	380
CCCCNc1nccc(N2CCNCC2)n1 [Example 68, Butyl-(4-piperazin-1-yl-pyrimidin-2-yl)-amine]	36.7
CNC1CN(c2ccnc(NCCOC)c2)C1 [Example 286, N-(2-Methoxyethyl)-4-[3-(methylamino)azetidin-1-yl]pyridin-2-amine]	88.3
CC(C)CNc1nccc(N2CCNCC2)n1 [Example 65, Isobutyl-(4-piperazin-1-yl-pyrimidin-2-yl)-amine]	68.6
CN[C@H]1CCN(c2ccnc(NCC34CC5CC(CC(C5)C3)C4)c2)C1 [Example 251, Adamantan-1-ylmethyl-[4-(3S)-(3-methylamino-pyrrolidin-1-yl)-pyridin-2-yl]amine]	79.4
CN[C@H]1CCN(c2cnnc(NCC3CCC4CC3C4(C)C)c2)C1 (stereo partly drawn) [Example 394, N-[(6,6-Dimethylbicyclo[3.1.1]hept-2-yl)methyl]-5-[(3S)-3-(methylamino)pyrrolidin-1-yl]pyridazin-3-amine]	634
CC(C)(CO)CNc1cc(N2CCNCC2)cnn1 [Example 366, 2,2-Dimethyl-3-[(5-piperazin-1-ylpyridazin-3-yl)amino]propan-1-ol]	> 10000
c1cc(N2C[C@H]3CCN[C@H]3C2)nc(NC2CCCC2)n1 [Example 139, N-Cyclopentyl-4-[(3aR,6aR)-hexahydropyrrolo[3,4-b]pyrrol-5(1H)-yl]pyrimidin-2-amine]	7.96
CN1CCN(c2cnnc(NC3CCCC3)c2)CC1 [Example 407, N-Cyclopentyl-5-(4-methylpiperazin-1-yl)pyridazin-3-amine]	824
c1nnc(NC2CCCCC2)cc1N1CCNCC1 [Example 355, N-Cyclohexyl-5-piperazin-1-ylpyridazin-3-amine]	2900
c1cc(N2C[C@H]3CCN[C@H]3C2)cc(NC2C3CC4CC(C3)CC2C4)n1 (stereo partly drawn) [Example 266, Adamantan-2-yl-[4-(3aR,6aR)-(hexahydro-pyrrolo[3,4-b]pyrrol-5-yl)pyridin-2-yl]-amine]	14.5
CC(C)(C)CNc1cc(N2CCCNCC2)cnn1 [Example 307, 5-(1,4-Diazepan-1-y1)-N-(2,2-dimethylpropyl)pyridazin-3-amine]	536
c1nnc(NCC2CCCC2)cc1N1C[C@H]2CCN[C@H]2C1 [Example 360, N-(Cyclopentylmethyl)-5-[(3aR,6aR)-hexahydropyrrolo[3,4-b]pyrrol-5(1H)-yl]pyridazin-3-amine]	1170
c1cc(N2CCNCC2)nc(NCC2CC2)n1 [Example 66, Cyclopropylmethyl-(4-piperazin-1-yl-pyrimidin-2-yl)-amine]	56.8

Next, values leading:

Ki [nM]	SMILES
353	CN[C@@H]1CCN(c2cnnc(NCc3ccccc3)c2)C1 [Example 397, N-Benzyl-5-[(3R)-3-(methylamino)pyrrolidin-1-yl]pyridazin-3-amine]
1560	CNC1CN(c2ccnc(NCc3ccccn3)c2)C1 [Example 297, 4-[3-(Methylamino)azetidin-1-yl]-N-(pyridin-2-ylmethyl)pyridin-2-amine]
523	CC(C)(O)CNc1nccc(N2CCNCC2)n1 [Example 177, 2-Methyl-1-[(4-piperazin-1-ylpyrimidin-2-yl)amino]propan-2-ol]
585	CN[C@H]1CCN(c2ccnc(NCc3ccccc3)c2)C1 [Example 237, N-Benzyl-4-[(3S)-3-(methylamino)pyrrolidin-1-yl]pyridin-2-amine]
168	C[C@@H](Nc1nccc(N2CC[C@@H](N)C2)n1)C1CCCCC1 [Example 103, 4-[(3R)-3-Aminopyrrolidin-1-yl]-N-[(1R)-1-cyclohexylethyl]pyrimidin-2-amine]
> 10000	COCCNc1cc(N2CC[C@@H](N)C2)cnn1 [Example 298, 5-[(3R)-3-Aminopyrrolidin-1-yl]-N-(2-methoxyethyl)pyridazin-3-amine]
788	N[C@@H]1CCN(c2ccnc(NCc3ccccc3)n2)C1 [Example 179, 4-[(3R)-3-Aminopyrrolidin-1-yl]-N-benzylpyrimidin-2-amine]
> 10000	COCCNc1cc(N2CC[C@H](N)C2)ccn1 [Example 264, 4-[(3S)-3-Aminopyrrolidin-1-yl]-N-(2-methoxyethyl)pyridin-2-amine]
190	COCCNc1nccc(N2CC[C@@H](N)C2)n1 [Example 59, 4-[(3R)-3-Aminopyrrolidin-1-yl]-N-(2-methoxyethyl)pyrimidin-2-amine]
1.57	CN[C@@H]1CCN(c2ccnc(NCC3CCCC3)n2)C1 [Example 121, N-(Cyclopentylmethyl)-4-[(3R)-3-(methylamino)pyrrolidin-1-yl]pyrimidin-2-amine]
458	CN[C@@H]1CCN(c2ccnc(NCc3ccc(OC)cc3)n2)C1 [Example 176, N-(4-Methoxybenzyl)-4-[(3R)-30(methylamino)pyrrolidin-1-yl]pyrimidin-2-amine]
130	CC(C)(C)CNc1cc(N2CC[C@@H](N)C2)cnn1 [Example 371, 5-[(3R)-3-Aminopyrrolidin-1-yl]-N-(2,2-dimethylpropyl)pyridazin-3-amine]
7.53	C[C@@H]1[C@@H](Nc2nccc(N3CC[C@@H](N)C3)n2)C[C@H]2C[C@@H]1C2(C)C [Example 116, 4-[(3R)-3-Aminopyrrolidin-1-yl]-N-[(1S,2S,3S,5R)-2,6,6-trimethylbicyclo[3.1.1]hept-3-yl]pyrimidin-2-amine]
> 10000	N[C@@H]1CCN(c2ccnc(NCc3ccccn3)n2)C1 [Example 61]
1.58	CN[C@@H]1CCN(c2ccnc(NC3CC4CC(C3C)C4(C)C)n2)C1 (stereo partly drawn) [Example 184, 4-[(3R)-3-(Methylamino)pyrrolidin-1-yl]-N-[(1S,2S,3S,5R)-2,6,6-trimethylbicyolo[3.1.1]hept-3-yl]pyrimidin-2-amine]
> 10000	CN[C@H]1CCN(c2ccnc(NCc3ccccn3)c2)C1 [Example 229, 4-[(3S)-3-(Methylamino)pyrrolidin-1-yl]-N-(pyridin-2-ylmethyl)pyridin-2-amine]
7.29	N[C@@H]1CCN(c2ccnc(NCC3CCCC3)c2)C1 [Example 278, 4-[(3R)-3-Aminopyrrolidin-1-yl]-N-(cyclopentylmethyl)pyridin-2-amine]
42.7	CC(C)(C)CNc1nccc(N2CC(N)C2)n1 [Example 88, 4-(3-Aminoazetidin-1-yl)-N-(2,2-dimethylpropyl)pyrimidin-2-amine]
224	CCCCNc1nccc(N2CC[C@H](N)C2)n1 [Example 196, 4-[(3S)-3-Aminopyrrolidin-1-yl]-N-butylpyrimidin-2-amine]
376	COCCNc1nccc(N2CCNCC2)n1 [Example 72, N-(2-Methoxyethyl)-4-piperazin-1-ylpyrimidin-2-amine]
64.7	CNC1CN(c2ccnc(NCC(C)(C)O)n2)C1 [Example 122]
7220	CC1(C)[C@H]2CC[C@H](CNc3cc(N4CC(N)C4)cnn3)[C@@H]1C2 [Example 306, 5-(3-Aminoazetidin-1-yl)-N-{[(1S,2S,5S)-6,6-dimethylbicyclo[3.1.1]hept-2-yl]methyl}pyridazin-3-amine]
34.9	CN[C@@H]1CCN(c2ccnc(NCCCO)n2)C1 [Example 167, 3-({4-[(3R)-3-(Methylamine)pyrrolidin-1-yl]pyrimidin-2-yl}amino)propan-1-ol]
29.7	N[C@@H]1CCN(c2ccnc(NCCCC(F)(F)F)n2)C1 [Example 150, 4-[(3R)-3-Aminopyrrolidin-1-yl]-N-(4,4,4-trifluorobutyl)pyrimidin-2-amine]
1530	N[C@H]1CCN(c2ccnc(NCc3ccccc3)c2)C1 [Example 267, 4-[(3S)-3-Aminopyrrolidin-1-yl]-N-benzylpyridin-2-amine]
